From patent publication US20060111258A1, “Solid N-acylalanine or a salt thereof” (AJINOMOTO CO., INC., priority 2003, published 2006) come the findings set out here.

A short description of data set [1]: Evaluation of caking during preservation. It is filed as physicochemical. To be noted: solid N-acylalanine salt; powder 25 g under 770 g spindle, 50° C., 24 hours, visual. From the text: 3. Evaluation of Caking During Preservation […] […] 6. Evaluation of Caking During Preservation: The measurement apparatus and measurement conditions were the same as in the aforementioned 3.

Data set [2] can be described thus: Evaluation of moisture absorbability during preservation (automatic vapor absorption measurement). Format: physicochemical. Particulars: average equilibrated moisture at humidity 70% RH, measurement temperature 25° C. Here is the method: 2. Evaluation of Moisture Absorbability During Preservation: The moisture absorbability was measured under the following measurement conditions and using an automatic vapor absorption measurement apparatus “BELSORP18” manufactured by BELL JAPAN, INC. Measurement conditions: X air thermostatic tank temperature: 50° C.; X measurement temperature: 25° C.; X MAX intake pressure: 0.9×Ps (Ps: saturated vapor pressure at measurement temperature); X MIN exhaust pressure: 0.1×Ps (Ps: saturated vapor pressure at measurement temperature); and X equilibration time: 5 min. Evaluation: Average equilibrated moisture of less than 5% at humidity 70% RH is ⊙, not less than 5% to less than 10% is ◯, not less than 10% to less than 15% is A, not less than 15% is x.

With `CCCCCCCCCCCC(=O)NC(C)C(=O)[O-].[K+]` (racemic) [Example 1, lauroyl-DL-alanine potassium salt], in data set [1], the caking during preservation result is listed as “⊚”. Also, in data set [2], the “moisture absorbability during preservation” value is “⊚”.
